According to the supplement of paper PMC11061612:

Tests used:
Assay in all cases: combination Emax (second highest fraction inhibited in the dose matrix, 72 h); higher = more inhibition; extreme values may be limits of the assay
5637 (Bladder Carcinoma) = tested on: 5637 (Bladder Carcinoma)
Outline: (§1)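 Cell lines grown in DMEM/F12 or RPMI with 10% FBS were plated in 1536-well plates and held 24 hours at 37°C, 5% CO2 before 72 hours of exposure to two-drug dose matrices, with DMSO typically at 0.2%. CellTiter-Glo 2.0 luminescence gave viability, which was converted to inhibition. Vehicle wells were set to 0 and blank wells to 1. Combination Emax is the second-highest inhibition in the matrix, and Bliss excess is the observed combination effect minus the expected EA + EB − EA·EB, where EA and EB are the single-agent effects.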

769-P (Kidney Carcinoma) = tested on: 769-P (Kidney Carcinoma)
Outline: as §1

[1] = tested on: A253 (Head and Neck Carcinoma)
Outline: as §1

[2] = tested on: A2780 (Ovarian Carcinoma)
Outline: as §1

[3] = tested on: CAL-27 (Oral Cavity Carcinoma)
Outline: as §1

[4] = tested on: DU-4475 (Breast Carcinoma)
Outline: as §1

EB2 (Burkitt's Lymphoma) = tested on: EB2 (Burkitt's Lymphoma)
Outline: as §1

[5] = tested on: EPLC-272H (Other Solid Carcinomas)
Outline: as §1

EW-16 (Ewing's Sarcoma) = tested on: EW-16 (Ewing's Sarcoma)
Outline: as §1

[6] = tested on: G-402 (Other Solid Carcinomas)
Outline: as §1

[7] = tested on: HCC1428 (Breast Carcinoma)
Outline: as §1

[8] = tested on: Jurkat (T-Lymphoblastic Leukemia)
Outline: as §1

[9] = tested on: KYSE-140 (Esophageal Squamous Cell Carcinoma)
Outline: as §1

[10] = tested on: LU-165 (Small Cell Lung Carcinoma)
Outline: as §1

[11] = tested on: MHH-ES-1 (Ewing's Sarcoma)
Outline: as §1

[12] = tested on: OACp4C (Esophageal Adenocarcinoma)
Outline: as §1

PEO1 (Ovarian Carcinoma) = tested on: PEO1 (Ovarian Carcinoma)
Outline: as §1

RH-41 (Rhabdomyosarcoma) = tested on: RH-41 (Rhabdomyosarcoma)
Outline: as §1

[13] = tested on: SK-HEP-1 (Hepatocellular Carcinoma)
Outline: as §1

WM1552C (Melanoma) = tested on: WM1552C (Melanoma)
Outline: as §1

Structure (SMILES)	combination Emax (5637 (Bladder Carcinoma))	combination Emax (769-P (Kidney Carcinoma))	combination Emax [1]	combination Emax [2]	combination Emax [3]	combination Emax [4]	combination Emax (EB2 (Burkitt's Lymphoma))	combination Emax [5]	combination Emax (EW-16 (Ewing's Sarcoma))	combination Emax [6]	combination Emax [7]	combination Emax [8]	combination Emax [9]	combination Emax [10]	combination Emax [11]	combination Emax [12]	combination Emax (PEO1 (Ovarian Carcinoma))	combination Emax (RH-41 (Rhabdomyosarcoma))	combination Emax [13]	combination Emax (WM1552C (Melanoma))
COc1nnc2ccc(N3CCC(c4ccc(OCCN5CCN(C)C(=O)[C@H]5C)cc4)CC3)nn12 [AZD5153] + CCN(CCO)CCCOc1ccc2c(Nc3cc(CC(=O)Nc4cccc(F)c4)[nH]n3)ncnc2c1 [AZD2811] (first compound max 1 µM, 7x7, partner max 1 µM)	0.68	0.711	0.444	0.783	0.646	0.944	0.589	0.748	0.553	0.825	0.701	0.745	0.626	0.458	0.762	0.683	0.435	0.888	0.41	0.444
COc1nnc2ccc(N3CCC(c4ccc(OCCN5CCN(C)C(=O)[C@H]5C)cc4)CC3)nn12 [AZD5153] + C=CCn1c(=O)c2cnc(Nc3ccc(N4CCN(C)CC4)cc3)nc2n1-c1cccc(C(C)(C)O)n1 [AZD1775] (first compound max 1 µM, partner max 1 µM)	0.944	0.956	0.356	0.844	0.63	1	0.796	0.862	0.679	0.85	0.718	0.983	0.832	0.602	0.764	0.882	0.691	0.996	0.312	0.439
CC1(C)CCC(CN2CCN(c3ccc(C(=O)NS(=O)(=O)c4ccc(NCC5CCOCC5)c([N+](=O)[O-])c4)c(Oc4cnc5[nH]ccc5c4)c3)CC2)=C(c2ccc(Cl)cc2)C1 [Venetoclax] + CCN(CCO)CCCOc1ccc2c(Nc3cc(CC(=O)Nc4cccc(F)c4)[nH]n3)ncnc2c1 [AZD2811] (first compound max 1 µM, 7x7, partner max 1 µM)	0.607	0.204	0.268	0.472	0.43	0.404	0.677	0.371	0.714	0.667	0.451	0.2	0.367	0.161	0.657	0.665	0.252	0.418	0.27	0.464
COc1cccc(OCCCN)c1-c1cc(Nc2cnc(C#N)cn2)n[nH]1 [Prexasertib] + C[C@@H]1COCCN1C2=NC(=NC(=C2)C3(CC3)[S@](=N)(=O)C)C4=C5C=CNC5=NC=C4 [AZD6738] (first compound max 1 µM, 7x7, partner max 10 µM)	0.845	0.837	0.846	0.825	0.504	0.995	0.92	0.942	0.736	0.605	0.378	0.992	0.959	0.565	0.693	0.737	0.489	0.97	0.462	0.743
COc1cccc2c1C(=O)c1c(O)c3c(c(O)c1C2=O)C[C@@](O)(C(=O)CO)C[C@@H]3O[C@H]1C[C@H](N)[C@H](O)[C@H](C)O1 [Doxorubicin] + Cc1cc2ncnn2cc1Nc1ncc2c(n1)n(C1CCOCC1)c(=O)n2C [AZD7648] (first compound max 1 µM, 7x7, partner max 10 µM)	0.546	0.706	0.957	0.934	0.741	1	0.979	0.539	0.913	0.949	0.168	0.972	0.442	0.337	0.916	0.783	0.419	0.95	0.872	0.793
CC1(C)CCC(CN2CCN(c3ccc(C(=O)NS(=O)(=O)c4ccc(NCC5CCOCC5)c([N+](=O)[O-])c4)c(Oc4cnc5[nH]ccc5c4)c3)CC2)=C(c2ccc(Cl)cc2)C1 [Venetoclax] + Cc1cc2ncnn2cc1Nc1ncc2c(n1)n(C1CCOCC1)c(=O)n2C [AZD7648] (first compound max 1 µM, 7x7, partner max 10 µM)	0.251	0.171	0.212	0.628	0.174	0.23	0.756	0.514	0.193	0.501	0.139	0.303	0.398	0.196	0.26	0.338	0.163	0.608	0.219	0.444
CCc1c2c(nc3ccc(O)cc13)-c1cc3c(c(=O)n1C2)COC(=O)[C@]3(O)CC [SN-38] + O=C(c1cc(Cc2n[nH]c(=O)c3ccccc23)ccc1F)N1CCN(C(=O)C2CC2)CC1 [Olaparib] (first compound max 0.3 µM, 7x7, partner max 10 µM)	–	0.734	0.938	0.777	–	0.942	0.932	0.856	0.981	0.829	–	–	–	0.478	0.978	0.637	0.725	–	0.665	0.609
C=CCn1c(=O)c2cnc(Nc3ccc(N4CCN(C)CC4)cc3)nc2n1-c1cccc(C(C)(C)O)n1 [AZD1775] + C1CN(CCC1(C(=O)N[C@@H](CCO)C2=CC=C(C=C2)Cl)N)C3=NC=NC4=C3C=CN4 [Capivasertib] (first compound max 3 µM, partner max 3 µM)	0.957	0.665	0.848	0.873	0.715	0.998	0.822	0.834	0.888	0.619	0.524	0.986	0.844	0.536	0.833	0.889	0.773	0.801	0.503	0.719
Cn1cnc2c(F)c(Nc3ccc(Br)cc3Cl)c(C(=O)NOCCO)cc21 [Selumetinib] + CC(C)n1c(=O)n(C)c2cnc3cc(F)c(-c4ccc(OCCCN5CCCCC5)nc4)cc3c21 [AZD1390] (first compound max 10 µM, 7x7, partner max 0.3 µM)	0.236	0.294	0.18	0.574	0.611	1	0.0739	0.651	0.134	0.222	0.169	0.124	0.191	0.213	0.126	0.43	0.266	0.131	0.193	0.384
CC(=O)c1c(C)c2cnc(Nc3ccc(N4CCNCC4)cn3)nc2n(C2CCCC2)c1=O [Palbociclib] + CC1(C)CCC(CN2CCN(c3ccc(C(=O)NS(=O)(=O)c4ccc(NCC5CCOCC5)c([N+](=O)[O-])c4)c(Oc4cnc5[nH]ccc5c4)c3)CC2)=C(c2ccc(Cl)cc2)C1 [Venetoclax] (first compound max 10 µM, 7x7, partner max 1 µM)	0.231	0.814	0.0236	0.721	0.0994	0.153	0.448	0.243	0.333	0.442	0.0427	0.412	0.199	0.115	0.401	0.217	0.194	0.329	0.621	0.28
Cn1cnc2c(F)c(Nc3ccc(Br)cc3Cl)c(C(=O)NOCCO)cc21 [Selumetinib] + C=CCn1c(=O)c2cnc(Nc3ccc(N4CCN(C)CC4)cc3)nc2n1-c1cccc(C(C)(C)O)n1 [AZD1775] (first compound max 10 µM, partner max 1 µM)	0.85	0.904	0.336	0.799	0.578	1	0.785	0.857	0.402	0.483	0.211	0.875	0.683	0.261	0.726	0.909	0.335	0.974	0.315	0.458
COc1nnc2ccc(N3CCC(c4ccc(OCCN5CCN(C)C(=O)[C@H]5C)cc4)CC3)nn12 [AZD5153] + C[C@@H]1COCCN1C2=NC(=NC(=C2)C3(CC3)[S@](=N)(=O)C)C4=C5C=CNC5=NC=C4 [AZD6738] (first compound max 1 µM, 7x7, partner max 10 µM)	0.823	0.977	0.736	0.848	0.659	1	0.764	0.919	0.747	0.941	0.732	0.985	0.821	0.685	0.812	0.856	0.748	0.99	0.406	0.546
NC1(C(=O)N[C@@H](CCO)c2ccc(Cl)cc2)CCN(c2ncnc3[nH]ccc23)CC1 [Capivasertib] + C[C@@H]1COCCN1C2=NC(=NC(=C2)C3(CC3)[S@](=N)(=O)C)C4=C5C=CNC5=NC=C4 [AZD6738] (first compound max 10 µM, 7x7, partner max 10 µM)	0.564	0.88	0.852	0.86	0.58	0.987	0.831	0.885	0.784	0.771	0.318	0.961	0.867	0.657	0.645	0.979	0.616	0.976	0.318	0.651
